The record followed here is patent publication US12729181B2, “Compounds, compositions, and methods for modulating calcium ion homeostasis” (The Regents of the University of California, priority 2020, dated 2026).

Data set [1] can be described thus: Metabolic stability in vivo.
In the next data set the test system is VDAC2. The experiment in a line: Binding of efsevin to VDAC2.
In the next data set the test system is tre^tc318 mutant embryos. The experiment in a line: Compound rescue screen: restoration of persistent heartbeat in tremblor embryos. The class given is in vivo, Zebrafish. Conditions: for responders at 10 µM / responders at 15 µM / responders at 20 µM: Danio rerio, 48 h; for responders at 10 µM: read-out: Rescue at 10 uM (%); for responders at 15 µM: read-out: Rescue at 15 uM (%); for responders at 20 µM: read-out: Rescue at 20 uM (%); for Rescue at 15 uM (%): 15 uM from 30 hpf. As for the experimental part: Zebrafish of the mutant line tremblor (tre^tc318) were maintained and bred as described previously in the literature. C. f. Langenbacher A D, et al., PNAS, 2005, 102(49), 17699-17704.
Exemplary compounds were screened for their ability to partially or completely restore persistent heartbeat in tre^tc318 embryos. 10 tre^tc318 mutant embryos were placed in each well of a 24-well plate and raised in the presence of individual compounds at various concentrations (5, 10, 15 and 20 μM) from 30 hpf. Cardiac function was analyzed by visual inspection at 2 dpf. The hearts of tre^tc318 embryos manifest a chaotic movement resembling cardiac fibrillation with sporadic contractions. Compounds that elicited persistent coordinated cardiac contractions were validated by rescreening at least once on another 10 tre^tc318 mutant embryos.

A further data set concerns cardiomyocytes. The experiment in a line: Ca sparks, Ca waves and contractions in cardiomyocytes. The data set is classed as cell-based.
The mark [2] stands for this setting: cardiac function by visual inspection at 2 dpf, 10 embryos per well.

`CCOC(=O)C1=CCN(S(=O)(=O)c2ccc(C)cc2)C1c1ccccc1` (stereo not shown) [FS001, efsevin, reference compound]: the “metabolic stability in vivo” value in data set [1] is “poor metabolic stability in vivo”. Moreover, the “binding to VDAC2” value with VDAC2 is reported as “bind to VDAC2”. For the same molecule, in the data set with tre^tc318 mutant embryos, the responders at 10 µM turned out to be 58%, the responders at 15 µM amounted to 80% and the responders at 20 µM came out at 45%. In addition, the “activity to restore coordinated contractions in tremblor” value in the data set on tre^tc318 mutant embryos (chemical suppressor screen on zebrafish tremblor embryos) is reported as “potent activity to restore coordinated contractions in tremblor”. Also, the “effect on Ca overload-induced Ca waves and contractions” value in the data set with cardiomyocytes was “inhibits Ca+overload-induced erratic Ca^+ waves and irregular contractions”.

As for `CCOC(=O)C1=CCN(S(=O)(=O)c2ccc(Br)cc2)C1c1cccc(Br)c1` (stereo not shown) [FS094], in the data set with tre^tc318 mutant embryos, the responders at 10 µM was determined as 11%, the responders at 15 µM stood at 75% and the responders at 20 µM was determined as 25%.

Consider `CCOC(=O)C1=CCN(S(=O)(=O)c2ccc(Br)cc2)C1c1cccc(F)c1` (stereo not shown) [FS095], for which, in the data set on tre^tc318 mutant embryos, the responders at 10 µM stood at 40%.

For the molecule `CCOC(=O)C1=CCN(S(=O)(=O)c2ccc(Br)cc2)C1c1cccc(C)c1` (stereo not shown) [FS096], in the data set on tre^tc318 mutant embryos, the responders at 10 µM was found to be 22%.

On to `CCOC(=O)C1=CCN(S(=O)(=O)c2ccc(Cl)cc2)C1c1ccc(F)cc1` (stereo not shown) [FS098], for which, in the data set with tre^tc318 mutant embryos, the responders at 10 µM came out at 40%, the responders at 15 µM was found to be 44% and the responders at 20 µM is 89%.

On to `CCOC(=O)C1=CCN(S(=O)(=O)c2ccc(Br)cc2)C1c1ccc(Cl)cc1` (stereo not shown) [FS099], for which, in the data set on tre^tc318 mutant embryos, the responders at 10 µM amounted to 0% and the responders at 15 µM is 33%.

`CCOC(=O)C1=CCN(S(=O)(=O)c2ccc(Br)cc2)C1c1ccc(Br)cc1` (stereo not shown) [FS100]: in the data set on tre^tc318 mutant embryos, the responders at 10 µM was 0% and the responders at 15 µM amounted to 33%.

`CCOC(=O)C1=CCN(S(=O)(=O)c2ccc(Br)cc2)C1c1ccc(F)cc1` (stereo not shown) [FS101]: the responders at 10 µM in the data set with tre^tc318 mutant embryos was found to be 20%.

As to `CCOC(=O)C1=CCN(S(=O)(=O)c2ccc(Br)cc2)C1c1ccc(C)cc1` (stereo not shown) [FS102], in the data set with tre^tc318 mutant embryos, the responders at 10 µM came out at 0%.

`CCOC(=O)C1=CCN(S(=O)(=O)c2ccc(Br)cc2)C1c1ccccc1` (stereo not shown) [FS104]: in the data set on tre^tc318 mutant embryos (10 uM from 30 hpf, cardiac function by visual inspection at 2 dpf, 10 embryos per well), the “Rescue at 10 uM (%)” value amounted to 60%. For the same molecule, the “Rescue at 15 uM (%)” value in the data set on tre^tc318 mutant embryos (setting [2]) came to 50%. Also, the “Rescue at 20 uM (%)” value in the data set on tre^tc318 mutant embryos (20 uM from 30 hpf, cardiac function by visual inspection at 2 dpf, 10 embryos per well) is 60%.

Turning to `CCOC(=O)C1=CCN(S(=O)(=O)c2ccc(F)cc2)C1c1cccc(Cl)c1` (stereo not shown) [FS114], the responders at 15 µM with tre^tc318 mutant embryos was 22%.

For the molecule `CCOC(=O)C1=CCN(S(=O)(=O)c2ccc(F)cc2)C1c1cccc(Br)c1` (stereo not shown) [FS115], the responders at 15 µM in the data set on tre^tc318 mutant embryos is 30%.

Turning to `CCOC(=O)C1=CCN(S(=O)(=O)c2ccc(F)cc2)C1c1cccc(F)c1` (stereo not shown) [FS116], the responders at 15 µM in the data set on tre^tc318 mutant embryos was determined as 11%.

Take `CCOC(=O)C1=CCN(S(=O)(=O)c2cccc(Cl)c2)C1c1ccc(Cl)c(Cl)c1` (stereo not shown) [FS118]: in the data set on tre^tc318 mutant embryos, the responders at 15 µM came to 10%.

Consider `CCOC(=O)C1=CCN(S(=O)(=O)c2cccc(Cl)c2)C1c1cccc(Br)c1` (stereo not shown) [FS120], for which the responders at 15 µM with tre^tc318 mutant embryos came to 56%.

`CCOC(=O)C1=CCN(S(=O)(=O)c2cccc(Cl)c2)C1c1cccc(F)c1` (stereo not shown) [FS121]: the responders at 15 µM with tre^tc318 mutant embryos turned out to be 56%.

`CCOC(=O)C1=CCN(S(=O)(=O)c2cccc(Cl)c2)C1c1cccc(C)c1` (stereo not shown) [FS122]: in the data set on tre^tc318 mutant embryos, the responders at 15 µM came out at 33%.

Regarding `CCOC(=O)C1=CCN(S(=O)(=O)c2ccc(F)cc2)C1c1ccc(Cl)cc1` (stereo not shown) [FS123], the responders at 15 µM in the data set with tre^tc318 mutant embryos worked out at 70%.

Consider `CCOC(=O)C1=CCN(S(=O)(=O)c2ccc(F)cc2)C1c1ccc(Br)cc1` (stereo not shown) [FS124], for which, in the data set on tre^tc318 mutant embryos, the responders at 15 µM stood at 90%.

Consider `CCOC(=O)C1=CCN(S(=O)(=O)c2cccc(Cl)c2)C1c1ccccc1` (stereo not shown) [FS132], for which, in the data set with tre^tc318 mutant embryos, the responders at 15 µM was 88%.

`CCOC(=O)C1=CCN(S(=O)(=O)c2cccc(F)c2)C1c1ccc(Cl)cc1` (stereo not shown) [FS133]: the responders at 15 µM in the data set on tre^tc318 mutant embryos worked out at 78%.

As to `CCOC(=O)C1=CCN(S(=O)(=O)c2cccc(F)c2)C1c1ccc(Br)cc1` (stereo not shown) [FS134], in the data set on tre^tc318 mutant embryos, the responders at 15 µM came to 60%.

As for `CCOC(=O)C1=CCN(S(=O)(=O)c2cccc(F)c2)C1c1ccc(F)cc1` (stereo not shown) [FS135], the responders at 15 µM in the data set with tre^tc318 mutant embryos was determined as 50%.

On to `CCOC(=O)C1=CCN(S(=O)(=O)c2cccc(Br)c2)C1c1ccc(Cl)cc1` (stereo not shown) [FS136], for which the responders at 15 µM in the data set with tre^tc318 mutant embryos was 29%.

Regarding `CCOC(=O)C1=CCN(S(=O)(=O)c2cccc(Br)c2)C1c1ccc(Br)cc1` (stereo not shown) [FS137], the responders at 15 µM with tre^tc318 mutant embryos was found to be 0%.

For `CCOC(=O)C1=CCN(S(=O)(=O)c2cccc(Br)c2)C1c1ccc(F)cc1` (stereo not shown) [FS138], in the data set on tre^tc318 mutant embryos, the responders at 15 µM turned out to be 50%.

With `CCOC(=O)C1=CCN(S(C)(=O)=O)C1c1ccc(Cl)cc1` (stereo not shown) [FS139], in the data set on tre^tc318 mutant embryos (setting [2]), the “Rescue at 15 uM (%)” value was found to be 0%.

Turning to `CCOC(=O)C1=CCN(S(C)(=O)=O)C1c1ccc(C)cc1` (stereo not shown) [FS140], the responders at 15 µM with tre^tc318 mutant embryos came out at 0%.

For the molecule `CCOC(=O)C1=CCN(S(=O)(=O)c2ccc([N+](=O)[O-])cc2)C1c1ccc(C)cc1` (stereo not shown) [FS141], the responders at 15 µM in the data set with tre^tc318 mutant embryos came to 0%.

On to `CCOC(=O)C1=CCN(S(=O)(=O)c2ccc([N+](=O)[O-])cc2)C1c1ccccc1` (stereo not shown) [FS142], for which the “Rescue at 15 uM (%)” value in the data set with tre^tc318 mutant embryos (setting [2]) came to 56%.

Turning to `CCOC(=O)C1=CCN(S(=O)(=O)c2ccc(C)cc2)C1c1cccs1` (stereo not shown) [FS147], the responders at 15 µM in the data set on tre^tc318 mutant embryos is 60%.

As for `CCOC(=O)C1=CCN(S(=O)(=O)c2ccccc2)C1c1ccccc1` (stereo not shown) [FS148], the responders at 15 µM with tre^tc318 mutant embryos was 56%.
